Our source for the EC50 and Emax values is ChEMBL document CHEMBL1156732, “Identification of SVM-based classification model, synthesis and evaluation of prenylated flavonoids as vasorelaxant agents” (Bioorg Med Chem, 2008).

Experiment [1] has as its system Aorta. In words: Vasorelaxant activity against phenylephrine-induced contraction in Sprague-Dawley rat aorta. The format is functional, tissue-based.
The subject of experiment [2] is Aorta. In words: Vasorelaxant activity against phenylephrine-induced contraction in Sprague-Dawley rat aorta relative to phenylephrine. It is filed as functional.

For orientation: EC50 means the concentration at which the effect is half-maximal. Higher therefore signals a need for much substance. A word on the Emax: it is the greatest response seen or fitted, relative to the assay's reference. On to `COc1cc(-c2cc(=O)c3c(O)cc(O)c(CC=C(C)C)c3o2)ccc1O`, for which the EC50 in experiment [1] came out at 49.3 µM. For the same molecule, the Emax in experiment [2] was found to be 70.6%. As for `COc1cc(C2CC(=O)c3c(O)cc(O)c(CC=C(C)C)c3O2)ccc1O` (racemic), the EC50 in experiment [1] was found to be 10.1 µM. The maximum response (Emax) in experiment [2] is 95.8%.

Turning to `CC(C)=CCc1c(O)cc(O)c2c(=O)cc(-c3cccc(Br)c3)oc12`, in experiment [1], the EC50 turned out to be 95.9 µM. This molecule registered a maximal response (Emax) in experiment [2] of 82.8%. Take `CC(C)=CCc1c(O)cc(O)c2c(=O)cc(-c3cccc(O)c3)oc12`: in experiment [2], the maximal effect (Emax) came out at 64.6%. Take `CC(C)=CCc1c(O)cc(O)c2c1OC(c1ccccc1)CC2=O` (racemic): the response in experiment [1] was half-maximal at 5.79 µM (EC50). In addition, the Emax in experiment [2] was found to be 122%. In experiment [1], `COc1cc(-c2cc(=O)c3c(O)cc(O)c(CC=C(C)C)c3o2)cc(OC)c1OC` yielded an EC50 of 64.3 µM. This molecule also yielded a maximal response (Emax) in experiment [2] of 90.1%. Molecule `CC(C)=CCc1c(O)cc(O)c(C(=O)/C=C/c2ccc(Cl)cc2)c1O` showed a 50% effective concentration (EC50) in experiment [1] of 679 µM. This molecule also gave a maximal effect (Emax) in experiment [2] of 64.4%.

As for `COc1cc(/C=C/C(=O)c2c(O)cc(O)c(CC=C(C)C)c2O)cc(OC)c1OC`, the Emax in experiment [2] was found to be 78.5%. `CC(C)=CCc1c(O)cc(O)c2c1OC(c1ccc3c(c1)OCO3)CC2=O` (racemic) returned an EC50 in experiment [1] of 1.32 µM. Moreover, in experiment [2], the Emax came to 77.3%. For the molecule `CC(C)=CCc1c(O)cc(O)c(C(=O)/C=C/c2ccc3c(c2)OCO3)c1O`, the EC50 in experiment [1] was found to be 4.21 µM. The same molecule registered an Emax in experiment [2] of 90%. Taken in the same sequence, the figures for `CC(C)=CCc1c(O)cc(O)c2c1OC(c1cccc(Br)c1)CC2=O` (racemic) were 1.56 µM and 78.2%.
